Reference: patent US7153858B2, “Arylpiperazinyl compounds” (Epix Delaware, Inc., priority 2003, dated 2006)
Where a name gives a salt, the structure may show the parent alone. Read-outs that look alike come from different tables or passages of the source.

Legend:
Assay type in all cases: binding
[1] = tested on: α1; assay: α1 cross-reactivity (% inhibition / Ki), Table 1
[2] = tested on: α2; assay: α2 cross-reactivity (% inhibition / Ki), Table 1
[3] = target: T1, 5-HT1A (Homo sapiens, UniProt P08908); assay: 5-HT1A receptor affinity (Ki), Table 1
T1 sequence (P08908 1-422): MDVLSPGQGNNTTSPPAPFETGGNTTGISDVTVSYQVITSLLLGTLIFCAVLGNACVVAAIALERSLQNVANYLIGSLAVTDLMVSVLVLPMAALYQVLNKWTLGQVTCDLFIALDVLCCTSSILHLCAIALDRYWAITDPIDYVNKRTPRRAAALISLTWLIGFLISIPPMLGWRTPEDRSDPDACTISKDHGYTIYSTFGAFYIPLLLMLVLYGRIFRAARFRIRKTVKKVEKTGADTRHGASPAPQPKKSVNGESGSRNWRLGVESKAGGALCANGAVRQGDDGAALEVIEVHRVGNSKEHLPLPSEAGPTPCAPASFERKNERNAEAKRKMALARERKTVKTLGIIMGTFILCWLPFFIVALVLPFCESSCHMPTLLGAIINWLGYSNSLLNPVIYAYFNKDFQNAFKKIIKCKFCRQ

Compound | α1 % inhibition [1] | α2 % inhibition [2] | Ki ([3]; read-out: 5-HT1A (Ki)) | Ki [2] | α1 % inhibition ([1]; HCl salt) | α2 % inhibition ([2]; HCl salt) | Ki ([3]; 5-HT1A (Ki))
CCCC(=O)Nc1cccc(N2CCN(CCCCNS(=O)(=O)c3ccc(C)cc3)CC2)c1 [N-(3-{4-[4-(Toluene-4-sulfonylamino)-butyl]-piperazin-1-yl}-phenyl)-butyramide] | 12% | 12% | 56 nM |  |  |  | 
CN(C)c1cccc(N2CCN(CCCCNS(=O)(=O)CC3CCCCC3)CC2)c1 [C-Cyclohexyl-N-{4-[4-(3-dimethylamino-phenyl)-piperazin-1-yl]-butyl}-methanesulfonamide] | 85% | 25% | 110 nM |  |  |  | 
CCS(=O)(=O)Nc1cccc(N2CCN(CCCCNS(=O)(=O)c3ccc(C)cc3)CC2)c1 [N-{4-[4-(3-Ethanesulfonylamino-phenyl)-piperazin-1-yl]-butyl}-4-methyl-benzenesulfonamide] | 47% | 14% | 141 nM |  |  |  | 
O=C(Nc1cccc(N2CCN(CCCCNS(=O)(=O)CC3CCCCC3)CC2)c1)C1CC1 [Cyclopropanecarboxylic acid {3-[4-(4-cyclohexylmethanesulfonylamino-butyl)-piperazin-1-yl]-phenyl}-amide] | 22% | <10% | 8.9 nM |  |  |  | 
Cc1ccc(S(=O)(=O)NCCCCN2CCN(c3cccc(NC(=O)C4CC4)c3)CC2)cc1 [Cyclopropanecarboxylic acid (3-{4-[4-(toluene-4-sulfonylamino)-butyl]-piperazin-1-yl}-phenyl)-amide] | 40% | 15% | 21 nM |  |  |  | 
Cc1ccc(S(=O)(=O)NCCCCN2CCN(c3cccc(NS(=O)(=O)C(C)C)c3)CC2)cc1 [4-Methyl-N-(4-{4-[3-(propane-2-sulfonylamino)-phenyl]-piperazin-1-yl}-butyl)-benzenesulfonamide] | 15% | <10% | 78 nM |  |  |  | 
Cc1ccc(S(=O)(=O)NCCCCN2CCN(c3ccccc3)CC2)cc1 [4-Methyl-N-[4-(4-phenyl-piperazin-1-yl)-butyl]-benzenesulfonamide] | 98% | 90% | 40 nM |  |  |  | 
CC(=O)Nc1cccc(N2CCN(CC3CCN(S(=O)(=O)c4ccc(F)cc4)CC3)CC2)c1 [N-(3-{4-[1-(4-Fluoro-benzenesulfonyl)-piperidin-4-ylmethyl]-piperazin-1-yl}-phenyl)-acetamide] | 49% | <10% | 13 nM |  |  |  | 
CN(C)c1cccc(N2CCN(CC3CCN(S(=O)(=O)c4ccc(F)cc4)CC3)CC2)c1 [(3-{4-[1-(4-Fluoro-benzenesulfonyl)-piperidin-4-ylmethyl]-piperazin-1-yl}-phenyl)-dimethyl-amine] | 74% | 0% | 507 nM |  |  |  | 
CC(=O)Nc1cccc(N2CCN(CCCCNS(=O)(=O)C3CCCCC3)CC2)c1 [N-{3-[4-(4-Cyclohexanesulfonylamino-butyl)-piperazin-1-yl]-phenyl}-acetamide] | <10% | 12% | 40 nM |  |  |  | 
CC(=O)Nc1cccc(N2CCN(CCCCNS(=O)(=O)c3ccc(F)cc3)CC2)c1 [N-(3-{4-[4-(4-Fluoro-benzenesulfonylamino)-butyl]-piperazin-1-yl}-phenyl)-acetamide] | 39% | <10% | 18 nM |  |  |  | 
CC(=O)Nc1cccc(N2CCN(CC3CCN(S(=O)(=O)C(C)C)CC3)CC2)c1 [N-(3-{4-[1-(Propane-2-sulfonyl)-piperidin-4-ylmethyl]-piperazin-1-yl}-phenyl)-acetamide] | <10% | <10% | 112 nM |  |  |  | 
COc1ccccc1N1CCN(CCCCNS(=O)(=O)CC2CCCCC2)CC1 [C-Cyclohexyl-N-{4-[4-(2-methoxy-phenyl)-piperazin-1-yl]-buty] [C-Cyclohexyl-N-{4-[4-(2-methoxy-phenyl)-piperazin-1-yl]-butyl}-methanesulfonamide] | 98% |  |  |  |  |  | 
O=S(=O)(CC1CCCCC1)NCCCCN1CCN(c2ccccn2)CC1 [C-Cyclohexyl-N-[4-(4-pyridin-2-yl-piperazin-1-yl)-butyl]-methanesulfonamide] | 81% | 51% | 6.5 nM |  |  |  | 
CC(=O)Nc1cccc(N2CCN(CCCCNS(=O)(=O)CC3CCCCC3)CC2)c1 [N-{3-[4-(4-Cyclohexylmethanesulfonylamino-butyl)-piperazin-1-yl]-phenyl}-acetamide] |  | <10% | 5.1 to 11 nM |  |  |  | 
CC(=O)Nc1cccc(N2CCN(CCCCN(C)S(=O)(=O)CC3CCCCC3)CC2)c1 [N-(3-{4-[4-(Cyclohexylmethanesulfonyl-methyl-amino)-butyl]-piperazin-1-yl}-phenyl)-acetamide] | 37% | 47% | 1.3 nM | 616 nM |  |  | 
O=S(=O)(c1ccc(F)cc1)N1CCC(CN2CCN(c3ccccn3)CC2)CC1 [1-[1-(4-Fluoro-benzenesulfonyl)-piperidin-4-ylmethyl]-4-pyridin-2-yl-piperazine] | 42% | 68% | 21 nM |  |  |  | 
Cc1ccc(S(=O)(=O)NCCCCN2CCN(c3cccc(NS(C)(=O)=O)c3)CC2)cc1 [N-{4-[4-(3-Methanesulfonylamino-phenyl)-piperazin-1-yl]-butyl}-4-methyl-benzenesulfonamide] | 51% | 21% | 46 nM |  |  |  | 
Cc1ccc(S(=O)(=O)NCCCCN2CCN(c3cccc(NC(=O)C(C)(C)C)c3)CC2)cc1 [2,2-Dimethyl-N-(3-{4-[4-(toluene-4-sulfonylamino)-butyl]-piperazin-1-yl}-phenyl)-propionamide] | 0% | 11% |  |  |  |  | 
Cc1ccc(S(=O)(=O)NCCCCN2CCN(c3cccc(NC(=O)C(C)C)c3)CC2)cc1 [N-(3-{4-[4-(Toluene-4-sulfonylamino)-butyl]-piperazin-1-yl}-phenyl)-isobutyramide] | 47% | 12% | 47 nM |  |  |  | 
CCC(=O)Nc1cccc(N2CCN(CCCCNS(=O)(=O)c3ccc(C)cc3)CC2)c1 [N-(3-{4-[4-(Toluene-4-sulfonylamino)-butyl]-piperazin-1-yl}-phenyl)-propionamide] | 0% | 31% | 213 nM |  |  |  | 
CC(=O)Nc1cccc(N2CCN(CCCCNS(=O)(=O)CC(C)C)CC2)c1 [N-(3-{4-[4-(2-Methyl-propane-1-sulfonylamino)-butyl]-piperazin-1-yl}-phenyl)-acetamide] | 5% | 0% | 11 nM |  |  |  | 
Cc1ccc(S(=O)(=O)NCCCCN2CCN(c3cccc([N+](=O)[O-])c3)CC2)cc1 [4-Methyl-N-{4-[4-(3-nitro-phenyl)-piperazin-1-yl]-butyl}-benzenesulfonamide HCl salt] |  |  | 105 nM |  | 61% | 23% | 
Cc1ccc(S(=O)(=O)NCCCCN2CCN(c3cccc([N+](=O)[O-])c3)CC2)cc1 [4-Methyl-N-{4-[4-(3-nitro-phenyl)-piperazin-1-yl]-butyl}-benzenesulfonamide] | 56% | 14% | 125 nM |  |  |  | 
CC(=O)Nc1cccc(N2CCN(CCCCNS(=O)(=O)C(C)C)CC2)c1 [N-(3-{4-[4-(Propane-2-sulfonylamino)-butyl]-piperazin-1-yl}-phenyl)-acetamide] | <10% | 12% | 24 nM |  |  |  | 
CC(=O)Nc1cccc(N2CCNCC2)c1.Cl [N-(3-Piperazin-1-yl-phenyl)-acetamide HCl] | 0% | 35% |  |  |  |  | 2.9 nM
CC(=O)Nc1cccc(N2CCN(CC3CCN(S(=O)(=O)CC4CCCCC4)CC3)CC2)c1 [N-{3-[4-(1-Cyclohexylmethanesulfonyl-piperidin-4-ylmethyl)-piperazin-1-yl]-phenyl}-acetamide] | 13% | <10% | 10 nM |  |  |  | 
Cl.O=C(Nc1cccc(N2CCNCC2)c1)C1CC1 [Cyclopropanecarboxylic acid (3-piperazin-1-yl-phenyl)-amide HCl] | 0% | 14% |  |  |  |  | 4.6 nM
